This note sets out measurements from PubChem BioAssay (NCI).

The structures appear in SMILES notation.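 Results reflect a 48-hour exposure of cells in 96-well plates to compound at five concentrations. The concentration for 50% growth inhibition is given as GI50. TGI: total growth inhibition.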

Assay in all cases: NCI-60 cell line screen, 48 h
For test [1], the system named is HL-60(TB) leukemia.
The subject of test [2] is A549 NSCLC.
The test system of test [3] is SNB-19 CNS.
For test [4], the system named is OVCAR-3 ovarian.
The test system of test [5] is HCT-116 colon.
The subject of test [6] is NCI-H226 lung.
Test [7] deals with OVCAR-4 ovarian.
In test [8] the test system is SK-OV-3 ovarian.
The subject of test [9] is HOP-92 NSCLC.
Test [10] relates to A498 renal.

Turning to `c1cnc2c(c1)-n1cccc1C1(CCSCC1)NN2`, the TGI in test [1], in test [2], in test [3], in test [4], in test [5] and in [6] was more than 100 µM throughout. The compound further registered a TGI in test [7] of more than 100 µM.

On to `CCN(CC)CCn1c2c3ccccc3ccc2c2oc(=O)c3ccccc3c21`, for which the TGI in test [1], in test [8], in test [2], in test [3], in [4] and in [5] was more than 100 µM each time. Further, the TGI in [9] is more than 100 µM; in [7], 96.5 µM.

Regarding `O=C(Oc1ccc(O)c2c(=O)n3c(cc12)[nH]c1ccccc13)c1ccccc1`, the GI50 in test [10] is 20.9 µM; in [1], 21.6 µM; in test [2], 24 µM; in [3], 37.7 µM; in [5], 11.3 µM; in test [9], 23.8 µM. The GI50 in [6] is 18.9 µM; in test [7], 49 µM. Also, the TGI in [10] is 42.4 µM; in test [1], 51.7 µM; in test [2], 66.8 µM; in [3], more than 100 µM; in test [5] it was 23.5 µM; in test [9], 53.4 µM. Moreover, the TGI in test [6] was 64.2 µM; in test [7], more than 100 µM.

Regarding `COc1cc(-c2cc(=O)c3cc4c(cc3[nH]2)OCO4)cc(OC)c1OC`, the TGI in test [1], in test [8], in test [2], in test [3], in [4] and in test [5] was more than 100 µM throughout. Besides, the TGI in [9] is 69 µM; in [6] it was more than 100 µM; in [7] it was more than 100 µM. Besides, the GI50 in [4] was more than 100 µM; in test [5], 73.7 µM; in test [6], more than 100 µM.

In the case of `CCN(CC)c1ccc(N=Nc2ccc(-c3nc4cccnc4o3)cc2)cc1`, the TGI in [10], in test [1], in test [2], in [3], in test [4] and in test [5] was more than 100 µM throughout. For the same compound, the TGI in test [9], in test [6] and in [7] was more than 100 µM in each case.

Consider `O=[N+]([O-])c1c(/C=N/Nc2ccccc2)oc(-c2ccc3c(c2)OCO3)c1-c1ccc2c(c1)OCO2`, for which the TGI in [1] is 33.5 µM; in [8], more than 100 µM; in test [2], more than 100 µM; in test [3], more than 100 µM; in test [4], 98.2 µM; in [5], more than 100 µM. Also, the TGI in test [9], in test [6] and in test [7] was more than 100 µM each time.

As for `CCN(CC)CCNc1c(OC)cc(C)c2sc3ccccc3c(=O)c12`, the TGI in test [1] came to 18.9 µM; in [8], 31.3 µM; in test [2], 18 µM; in [3] it was 26.6 µM; in test [4], 26.2 µM; in test [5], 16.3 µM. In addition, the TGI is 32.2 µM in test [9], 12.8 µM in test [6] and 14.8 µM in [7].

As to `Cc1cc2c(CC(=O)O)[nH]nc2c(C(=O)O)c1C`, the TGI in test [1], in test [8], in [2], in [3], in test [4] and in [5] was more than 100 µM each time. Besides, the TGI in [9] and in [6] was more than 100 µM throughout.

`C=CCNC(=S)N1CC(C)C(=O)Nc2ccccc21` (centres undefined): the TGI in test [1], in test [2], in test [3], in [4], in test [5] and in [6] was more than 100 µM each time. Moreover, the TGI in [7] was more than 100 µM.

For `S=C(Nc1ccc(-c2nc3ccccc3[nH]2)cc1)NC1CCCCC1`, the GI50 is 46.9 µM in test [1]; 40.3 µM in test [2]; 46.6 µM in [3]; 20.7 µM in test [5]; 35.3 µM in test [9]; 19.6 µM in test [6]. Besides, the TGI worked out at 43.8 µM in test [4], 39.5 µM in test [5] and 48.9 µM in [6].

On to `CN(C)c1ccc(/C=C2\Oc3cc(O)ccc3C2=O)cc1`, for which the TGI in test [1], in test [8], in [2], in [3], in test [4] and in test [5] was more than 100 µM throughout. Also, the TGI in [6] and in test [7] was more than 100 µM in each case.

In the case of `Cc1nc2ccc(C(F)(F)F)cc2nc1Nc1ccc(Cl)c(Cl)c1`, the TGI in test [1] is 24 µM; in [8], 36 µM; in [2], 21.6 µM; in test [3] it was 27.1 µM; in test [4] it was 26.9 µM; in test [5], 22.2 µM. In addition, the values for the TGI in test [9] and in test [6] were 12.1 µM and 39.1 µM, respectively.

Turning to `C=CCn1c(C)nc2cc(Nc3nc(Nc4ccc5nc(C)n(CC=C)c5c4)c4ccccc4n3)ccc21`, the GI50 is 1.46 µM in [10]; 1.7 µM in [1]; 0.183 µM in test [4]; 0.78 µM in [9]; 2.02 µM in test [6]; 0.24 µM in [7]. The TGI amounted to 2.87 µM in test [10]; 4.13 µM in test [1]; 0.342 µM in test [4]; 2.08 µM in [9]; 4.77 µM in [6]; 0.583 µM in [7].

As for `CCOC(=O)CCC(=O)C1c2cccc(O)c2C(=O)c2c(O)cccc21`, the TGI in test [1] was 0.657 µM; in [2] it was 2.18 µM; in [3], 3.7 µM; in [4], 2.26 µM; in test [5], 2.6 µM; in test [9], 3.23 µM. In [7], this compound had a TGI of 1.86 µM.

With `N#CCCc1nc2ccc(Br)cc2c(=O)n1CCO`, the TGI in [1], in test [8], in test [2], in test [4], in [9] and in [6] was more than 100 µM throughout. The same compound had a TGI in [7] of more than 100 µM.

For `CCCC(=O)c1c(NOC2OC(COC(C)=O)C(OC(C)=O)C(OC(C)=O)C2OC(C)=O)nc(OC)n(C)c1=O` (centres undefined), the TGI in test [2], in test [3], in [5], in test [6] and in test [7] was more than 100 µM in each case.

Turning to `O=c1cc(-c2ccccc2)[nH]c2cccc(S)c12`, the TGI was more than 100 µM in test [1]; 26.1 µM in [8]; more than 100 µM in [2]; more than 100 µM in test [3]; more than 100 µM in test [4]; more than 100 µM in test [5]. For the same compound, the values for the TGI in [9], in test [6] and in test [7] were more than 100 µM, 98.7 µM and more than 100 µM, respectively.

`O=C(Nc1ccc(Cl)cc1)Nc1ccc(Cl)c(Cl)c1`: the GI50 in [10] was 3.05 µM; in [1] it was 2.84 µM; in test [2], 4.58 µM; in test [3], 4.01 µM; in test [4], 3.31 µM; in test [5], 3.5 µM. The GI50 in [9] was 1.62 µM; in test [7], 3.88 µM. Moreover, the TGI in test [10] was 7.94 µM; in test [1], 7.69 µM; in test [2], more than 100 µM; in test [3], more than 100 µM; in test [4] it was more than 100 µM; in [5] it was more than 100 µM. Further, the TGI in [9] was 5.46 µM; in test [7], more than 100 µM.

In the case of `C=CCc1cc2cccc(OC)c2oc1=O`, the TGI in [10], in test [1], in [2], in [3], in [4] and in [5] was more than 100 µM each time. In addition, the TGI in test [9], in test [6] and in test [7] was more than 100 µM throughout.

For `CC(C)=CC(C(O)c1ccccc1)S(=O)(=O)c1nccn1C` (centres undefined), the TGI in test [1], in test [8], in test [2], in test [3], in test [4] and in [5] was more than 100 µM each time. Besides, the TGI in test [9], in [6] and in [7] was more than 100 µM each time.

Regarding `Cc1nn(C(=O)c2ccccc2O)c2c1C(c1ccccc1)SC(N)=N2` (centres undefined), the TGI in [1] is 3.58 µM; in [8], more than 10 µM; in [2], more than 10 µM; in test [3] it was more than 10 µM; in test [4], 7.22 µM; in test [5], more than 10 µM. The figures for the TGI in [6] and in test [7] were 7.38 µM and more than 10 µM, respectively.

Turning to `COP1(=O)CC2C(Cl)(Cl)C2(C)C1` (centres undefined), the TGI in test [1], in test [8], in test [2], in test [3], in test [4] and in [5] was more than 100 µM in each case. Moreover, the TGI in test [6] and in test [7] was more than 100 µM throughout.

Take `Cc1c(CCCl)c(=O)n2c([nH]c3ccccc32)c1C#N`: the TGI in test [1] was more than 10 µM; in test [8], 3.84 µM; in test [2], 3.53 µM; in [4], 3.67 µM; in test [5] it was 1.93 µM; in test [9] it was 2.82 µM. Besides, the TGI in test [6] is 4.84 µM; in test [7] it was 3.16 µM.

With `CC(=O)NC1=N/C(=C/c2cc([N+](=O)[O-])ccc2O)CN1C`, the TGI in test [1], in test [8], in test [2], in [3], in [4] and in [5] was more than 100 µM throughout. The TGI in [9], in test [6] and in [7] was more than 100 µM in each case.

For the compound `Nc1ccc(C(=O)N/C(=C\C=C\c2ccco2)c2nc3[nH]c(=S)[nH]c(=O)c3[nH]2)cc1`, the TGI in [8], in test [2], in test [3], in test [4], in [9] and in test [7] was more than 100 µM in each case.

With `Cc1nc(N)sc1C(=O)/C=C/c1ccc(/C=C/C(=O)c2sc(NC(=O)CCCCCCCCC(=O)Nc3nc(C)c(C(=O)/C=C/c4ccc(/C=C/C(=O)c5sc(N)nc5C)cc4)s3)nc2C)cc1`, the TGI in test [1], in test [8], in [2], in test [3], in [4] and in [5] was more than 100 µM each time. In addition, the TGI in test [7] was more than 100 µM.

With `COc1cc(-c2nc3ccc(C)cc3[nH]2)ccc1OCC(=O)N=Nc1c(O)[nH]c2ccccc12`, the GI50 in test [10] was 2.36 µM; in test [3] it was 1.83 µM; in test [4] it was 1.71 µM; in test [5] it was 0.442 µM; in test [9], 1.56 µM; in test [7], 1.75 µM. Moreover, the TGI in test [10] is 7.46 µM; in test [3] it was 3.51 µM; in test [4], 3.21 µM; in test [5], 1.66 µM; in [9], 3.28 µM; in [7], 3.25 µM.

As for `CCOC(=O)C(C)(C)Oc1ccc2c(=O)cc(-c3ccc(Cl)cc3)oc2c1`, the TGI in test [10], in [1], in test [2], in [3], in test [4] and in test [5] was more than 100 µM throughout. For the same compound, the TGI in test [6] and in test [7] was more than 100 µM each time.

On to `COc1ccc2c(c1)C(=O)CC(N)C2` (centres undefined), for which the TGI in test [1], in [8], in test [2], in test [3], in test [4] and in test [5] was more than 100 µM throughout. In addition, the TGI in test [9], in test [6] and in test [7] was more than 100 µM in each case.
